Data reported in patent publication US12186283B2, “Bismuth-thiol compositions and methods of use” (Microbion Corporation, priority 2018, dated 2025).
Values after ≈ are worked out from the molar mass of the structure shown. Like-named read-outs stand apart in the source and are kept apart here.

Columns and labels:
[1] = test system: beta-hemolytic streptococci (S. pyogenes, S. agalactiae); test: Broth microdilution MIC (Example 11); format: cell-based, Streptococcus pyogenes, Streptococcus agalactiae; conditions: read-out: MIC
[2] = test system: Enterococcus spp. (E. faecalis, E. faecium); test: Broth microdilution MIC (Example 11); format: cell-based; conditions: Enterococcus faecium, VRE, E. faecium MMX 485; VRE, vanA, LevR, CipR, EryR; read-out: MIC
[3] = test system: Burkholderia cepacia complex; test: Broth microdilution MIC (Example 10); conditions: initial MIC testing
P. aeruginosa = test: Broth microdilution MIC (Example 10)
[4] = test system: Burkholderia cepacia complex; test: Checkerboard FIC assay, BisEDT with CF agents (Example 10); format: cell-based, Burkholderia spp.; conditions: agent alone, as observed during FIC testing
Aspergillus spp. = test: Broth microdilution MIC/MEC, mold (Example 13); format: cell-based; conditions: comparators, read time not given
Candida krusei = test: Broth microdilution MIC, yeast (Example 13); format: cell-based
Candida albicans = test: Broth microdilution MIC, yeast (Example 13); format: cell-based; conditions: 24 hr
Candida auris = test: Broth microdilution MIC, yeast (Example 13); format: cell-based
Candida glabrata = test: Broth microdilution MIC, yeast (Example 13); format: cell-based

CCC[C@@H]1C[C@@H](C(=O)N[C@@H]([C@H]2O[C@H](SC)[C@H](O)[C@@H](O)[C@H]2O)[C@H](C)Cl)N(C)C1 [clindamycin, reference compound]
MIC ([1]; S. agalactiae MMX 3741, ERY^R CC^R): > 8 µg/mL
MIC ([1]; S. agalactiae MMX 3743, ERY^R CC^R): > 8 µg/mL
MIC ([1]; S. agalactiae MMX 4077, ERY^R CC^R): > 8 µg/mL
MIC ([1]; S. agalactiae MMX 4079, ERY^R CC^R Pen^R MEM^R): > 8 µg/mL
MIC ([1]; S. agalactiae MMX 4086, ERY^R CC^R): > 8 µg/mL
MIC [2]: > 32 µg/mL

C[C@H]1[C@H](NC(=O)/C(=N\OC(C)(C)C(=O)O)c2csc(N)n2)C(=O)N1S(=O)(=O)O [AZT]
MIC ([3]; B. cenocepacia isolate 0813 (CPI-I)): 8 µg/mL (≈ 18.4 µM)
MIC ([3]; B. cenocepacia isolate 1631): 32 µg/mL (≈ 73.5 µM)
MIC ([3]; B. cenocepacia isolate 1783): 32 µg/mL (≈ 73.5 µM)
MIC ([3]; B. cenocepacia isolate 8555): 256 µg/mL (≈ 588 µM)
MIC ([3]; B. cepacia isolate 0546): 16 µg/mL (≈ 36.7 µM)
MIC ([3]; B. cepacia isolate 0547): 16 µg/mL (≈ 36.7 µM)
MIC ([3]; B. cepacia isolate 1793): 128 µg/mL (≈ 294 µM)
MIC ([3]; B. cepacia isolate 1794): 32 µg/mL (≈ 73.5 µM)
MIC ([3]; B. cepacia isolate 9040): 32 µg/mL (≈ 73.5 µM)
MIC ([3]; B. multivorans isolate 1580 (CIP-R)): 64 µg/mL (≈ 147 µM)
MIC ([3]; B. multivorans isolate 1791): 4 µg/mL (≈ 9.19 µM)
MIC ([3]; B. multivorans isolate 1795 (MEM-I, CIP-R)): 4 µg/mL (≈ 9.19 µM)
MIC ([3]; B. multivorans isolate 5665 (CIP-I)): 4 µg/mL (≈ 9.19 µM)
MIC ([3]; B. multivorans isolate 8952 (CIP-I)): 8 µg/mL (≈ 18.4 µM)
MIC (P. aeruginosa; P. aeruginosa isolate 103 (ATCC 25922), QC strain, initial MIC testing): 8 µg/mL (≈ 18.4 µM)
MIC (P. aeruginosa; P. aeruginosa isolate 103 (ATCC 25922), during FIC testing, each agent tested alone for QC, one replicate): 8 µg/mL
MIC (P. aeruginosa; P. aeruginosa isolate 1497 (TOB-R, AMK-R, CIP-I, AZT-R, COL-R), initial MIC testing): 32 µg/mL (≈ 73.5 µM)
MIC (P. aeruginosa; P. aeruginosa isolate 1530 (TOB-R, AMK-R, CIP-R), initial MIC testing): 4 µg/mL (≈ 9.19 µM)
MIC (P. aeruginosa; P. aeruginosa isolate 1553 (TOB-R, AMK-R, CIP-R), initial MIC testing): 8 µg/mL (≈ 18.4 µM)
MIC (P. aeruginosa; P. aeruginosa isolate 6322 (MEM-R, TOB-R, AMK-R, CIP-R, AZT-R), initial MIC testing): 64 µg/mL (≈ 147 µM)
MIC (P. aeruginosa; P. aeruginosa isolate 6977 (MEM-I, TOB-R, CIP-R, AZT-I), initial MIC testing): 16 µg/mL (≈ 36.7 µM)
MIC (P. aeruginosa; P. aeruginosa isolate 7745 (MEM-R, CIP-R, AZT-R), initial MIC testing): 32 µg/mL (≈ 73.5 µM)
MIC (P. aeruginosa; P. aeruginosa isolate 7754 (MEM-R, TOB-R, CIP-R, AZT-I), initial MIC testing): 16 µg/mL (≈ 36.7 µM)
MIC (P. aeruginosa; P. aeruginosa isolate 7762 (MEM-I, CIP-I), initial MIC testing): 8 µg/mL (≈ 18.4 µM)
MIC (P. aeruginosa; P. aeruginosa isolate 7871 (MEM-R, AZT-I), initial MIC testing): 16 µg/mL (≈ 36.7 µM)
MIC (P. aeruginosa; P. aeruginosa isolate 7874, initial MIC testing): 4 µg/mL (≈ 9.19 µM)
MIC (P. aeruginosa; P. aeruginosa isolate 7886 (MEM-R, CIP-R, AZT-R), initial MIC testing): 64 µg/mL (≈ 147 µM)
MIC (P. aeruginosa; P. aeruginosa isolate 8797 (MEM-R, TOB-R, AMK-R, CIP-R, AZT-R, COL-R), initial MIC testing): >256 µg/mL
MIC (P. aeruginosa; P. aeruginosa isolate 8798 (MEM-R, TOB-R, AMK-R, CIP-R, AZT-R, COL-R), initial MIC testing): 256 µg/mL (≈ 588 µM)
MIC (P. aeruginosa; P. aeruginosa isolate 9108 (CIP-R, AZT-I), initial MIC testing): 16 µg/mL (≈ 36.7 µM)
MIC ([4]; B. cenocepacia isolate 0548): 64 µg/mL
MIC ([4]; B. cenocepacia isolate 0813): 32 µg/mL
MIC ([4]; B. multivorans isolate 1795): 16 µg/mL

C[C@@H]1[C@H](O)[C@@H](C)/C=C/C=C/C=C/C=C/C=C/C=C/C=C/[C@H](O[C@@H]2O[C@H](C)[C@@H](O)[C@H](N)[C@@H]2O)C[C@@H]2O[C@](O)(C[C@@H](O)C[C@@H](O)[C@H](O)CC[C@@H](O)C[C@@H](O)CC(=O)O[C@H]1C)C[C@H](O)[C@H]2C(=O)O [AMP B]
MIC0 (complete inhibition) (Aspergillus spp.; A. flavus ATCC 22546): 1 µg/mL
MIC0 (complete inhibition) (Aspergillus spp.; A. flavus ATCC 204304): 1 µg/mL
MIC0 (complete inhibition) (Aspergillus spp.; A. flavus MMX 7935): 1 µg/mL
MIC0 (complete inhibition) (Aspergillus spp.; A. fumigatus ATCC 204305): 1 µg/mL
MIC0 (complete inhibition) (Aspergillus spp.; A. fumigatus ATCC MYA-3626): 1 µg/mL
MIC0 (complete inhibition) (Aspergillus spp.; A. fumigatus MMX 5934): 1 µg/mL
MIC0 (complete inhibition) (Aspergillus spp.; A. fumigatus MMX 5938): 1 µg/mL
MIC0 (complete inhibition) (Aspergillus spp.; A. fumigatus MMX 5939): 1 µg/mL
MIC0 (complete inhibition) (Aspergillus spp.; A. niger ATCC 29508): 0.25 µg/mL
MIC0 (complete inhibition) (Aspergillus spp.; A. terreus MMX 8229): 0.25 µg/mL
MIC0 (complete inhibition) (Candida krusei; C. krusei ATCC 6258, MICA-I): 0.5 µg/mL
MIC0 (complete inhibition) (Candida krusei; C. krusei ATCC 14243, Susceptible): 0.25 µg/mL
MIC0 (complete inhibition) (Candida krusei; C. krusei ATCC 96685, Susceptible): 0.5 µg/mL
MIC0 (complete inhibition) (Candida krusei; C. krusei MMX 7125, Susceptible): 0.5 µg/mL
MIC0 (complete inhibition) (Candida krusei; C. krusei MMX 7128, Susceptible): 0.5 µg/mL
MIC0 (complete inhibition) (Candida krusei; C. krusei MMX 7141, Susceptible): 0.25 µg/mL
MIC0 (complete inhibition) (Candida krusei; C. krusei MMX 7153, MICA-R): 0.5 µg/mL
MIC0 (complete inhibition) (Candida krusei; C. krusei MMX 7155, Susceptible): 0.25 µg/mL
MIC0 (complete inhibition) (Candida krusei; C. krusei MMX 7563, Susceptible): 0.5 µg/mL
MIC0 (complete inhibition) (Candida krusei; C. krusei MMX 9878, MICA-I, VORI-I): 0.5 µg/mL
MIC0 (complete inhibition) (Candida albicans; Candida albicans ATCC 90028, Susceptible): 0.25 µg/mL
MIC0 (complete inhibition) (Candida albicans; Candida albicans ATCC 204276, MICA-R): 0.25 µg/mL
MIC0 (complete inhibition) (Candida albicans; Candida albicans ATCC MYA-2732, FLU-R, VORI-I): 0.25 µg/mL
MIC0 (complete inhibition) (Candida albicans; Candida albicans MMX 7053, Susceptible): 0.12 µg/mL
MIC0 (complete inhibition) (Candida albicans; Candida albicans MMX 7067, FLU-R, VORI-R): 0.25 µg/mL
MIC0 (complete inhibition) (Candida albicans; Candida albicans MMX 7403, Susceptible): 0.25 µg/mL
MIC0 (complete inhibition) (Candida albicans; Candida albicans MMX 7424, CASP-R, MICA-R): 0.25 µg/mL
MIC0 (complete inhibition) (Candida albicans; Candida albicans MMX 7430, Susceptible): 0.25 µg/mL
MIC0 (complete inhibition) (Candida albicans; Candida albicans MMX 7437, FLU-I): 0.25 µg/mL
MIC0 (complete inhibition) (Candida albicans; Candida albicans MMX 7445, FLU-R, VORI-R): 0.12 µg/mL
MIC0 (complete inhibition) (Candida auris; C. auris MMX 9862, Susceptible): 0.25 µg/mL
MIC0 (complete inhibition) (Candida auris; C. auris MMX 9863, FLU-R, VORI-R): 0.12 µg/mL
MIC0 (complete inhibition) (Candida auris; C. auris MMX 9864, FLU-R, VORI-R): 0.25 µg/mL
MIC0 (complete inhibition) (Candida auris; C. auris MMX 9865, FLU-R, VORI-R): 0.25 µg/mL
MIC0 (complete inhibition) (Candida auris; C. auris MMX 9866, FLU-R, VORI-R): 0.5 µg/mL
MIC0 (complete inhibition) (Candida auris; C. auris MMX 9867, FLU-R, VORI-R): 0.5 µg/mL
MIC0 (complete inhibition) (Candida auris; C. auris MMX 9868, FLU-R, VORI-R): 0.25 µg/mL
MIC0 (complete inhibition) (Candida auris; C. auris MMX 9869, FLU-R, VORI-R): 1 µg/mL
MIC0 (complete inhibition) (Candida auris; C. auris MMX 9870, FLU-R, VORI-R): 1 µg/mL
MIC0 (complete inhibition) (Candida auris; C. auris MMX 9871, Susceptible): 1 µg/mL
MIC0 (complete inhibition) (Candida glabrata; Candida glabrata ATCC 90030, Susceptible): 0.25 µg/mL
MIC0 (complete inhibition) (Candida glabrata; Candida glabrata ATCC MYA-2950, Susceptible): 0.12 µg/mL
MIC0 (complete inhibition) (Candida glabrata; Candida glabrata MMX 7087, Susceptible): 0.12 µg/mL
MIC0 (complete inhibition) (Candida glabrata; Candida glabrata MMX 7093, FLU-R): 0.25 µg/mL
MIC0 (complete inhibition) (Candida glabrata; Candida glabrata MMX 7101, FLU-R): 0.25 µg/mL
MIC0 (complete inhibition) (Candida glabrata; Candida glabrata MMX 7103, CASP-R, MICA-R): 0.25 µg/mL
MIC0 (complete inhibition) (Candida glabrata; Candida glabrata MMX 7111, Susceptible): 0.25 µg/mL
MIC0 (complete inhibition) (Candida glabrata; Candida glabrata MMX 7285, CASP-R, MICA-R): 0.25 µg/mL
MIC0 (complete inhibition) (Candida glabrata; Candida glabrata MMX 7307, CASP-R, MICA-R, FLU-R): 0.25 µg/mL
MIC0 (complete inhibition) (Candida glabrata; Candida glabrata MMX 7549, Susceptible): 0.25 µg/mL
